We go through 2 molecules from patent US20240008482A1, “METHOD OF IN[…] VIRUS USING A GLUT[…] COMPOSITION” (priority 2021, published 2024).

The subject of one test is adenovirus type 5. Type of test: cell-based.
The next test has as its system poliovirus type 1. Type of test: cell-based.
A further test has as its system MNV. Type of test: cell-based, Murine Norovirus (MNV).
Another test relates to SARS-CoV (Hanoi strain). The settings on record: cited from earlier work.
The test system of another test is HCoV-229E. The settings on record: 2% glutaraldehyde; cited from earlier work.
Another test deals with SARS-CoV (Isolate FFM-1). The settings on record: cited from earlier work.

Regarding `C=O` [formaldehyde], the “time after which a 4 log10 reduction is achieved” value in the test on adenovirus type 5 came to 30 minutes. In addition, the “reduction of viral titre achieved” value in the test with poliovirus type 1 and in the test on MNV was less than 4 log10 in each case.
As to `O=CCCCC=O` [glutaraldehyde], the “time to inactivate the virus” value with SARS-CoV (Hanoi strain) was 5 min; with SARS-CoV (Isolate FFM-1), 2 min. Besides, in the test with HCoV-229E, the “effectiveness against the virus” value is “effective”.
